In patent publication US20070004653A1, “Stable lyophilized anthracycline glycosides” (priority 2005, published 2007):

Test: Stability tests of lyophilized Idarubicin HCl, not stabilized and stabilized: pH, aglycone, bis-anhydro before and after lyophilization
Type: physicochemical
Protocol: Starting product was idarubicin hydrochloride, 1% w/v in water, containing amount of free HCl. No additional chemicals were added. Most of the solution was frozen and lyophilized. […]
To obtain idarubicin hydrochloride containing a trace amount of free HCl, idarubicin HCl was slurried in 20 volumes of a mixture of dichloromethane:methanol (90:10) containing a 1% molar amount of HCl with respect to the molar amount of idarubicin hydrochloride. The slurry was filtered off and washed with the same solvent mixture and then dried under vacuum at room temperature, until constant weight.
Starting product was idarubicin hydrochloride: 1% w/v in water, containing a trace amount of free HCl. 1.5% mol of both NH4OAc and AcOH with respect to idarubicin hydrochloride were added. Most of the solution was frozen and lyophilized. […]
Starting product was idarubicin hydrochloride, 1% w/v in water, containing a trace amount of free HCl. The solution was first decolorized with charcoal and 1.5% mol of both NH4OAc and AcOH with respect to idarubicin hydrochloride were added. Most of the solution was frozen and lyophilized. […]
Starting product was idarubicin hydrochloride, 1% w/v in water, containing a trace amount of free HCl. 0.65% mol of both NH4OAc and AcOH (0.1% and 0.08% w/w, respectively) with respect to idarubicin hydrochloride were added. Most of the solution was frozen and lyophilized. […]
Starting product was idarubicin hydrochloride, 1% w/v in water, containing a trace amount of free HCl. 0.1% w/w of NH4HCO3 and gaseous CO2 were added. Most of the solution was frozen and lyophilized. […]
Starting product was idarubicin hydrochloride, 1% w/v in water, containing a trace amount of free HCl. 0.1% w/w of NaHCO3 and gaseous CO2 were added. Most of the solution was frozen and lyophilized. […]
Starting product was idarubicin hydrochloride, 1% w/v in water, containing a trace amount of free HCl. 1.0% molar amount of AMBERLITE® IRA-67 (1.6 M) acetate and 0.8% molar amount of acetic acid with respect to idarubicin hydrochloride were added. The solution was filtered through a 0.4 micron membrane then it was frozen and lyophilized.

[1] = Example 16: solution to load into lyophilizer, no additional chemicals
[2] = Example 26: solution + 1.5% mol of both NH4OAc/AcOH to load into lyophilizer
[3] = Example 27: solution decolorized with charcoal + 1.5% mol of both NH4OAc/AcOH to load into lyophilizer
[4] = Example 28: solution + 0.65% mol of both NH4OAc/AcOH to load into lyophilizer
[5] = Example 29: lyophilized product obtained (NH4HCO3 + CO2)
[6] = Example 29: solution + 0.1% w/w of NH4HCO3 and gaseous CO2 to saturation, to load into lyophilizer
[7] = Example 30: lyophilized product obtained (NaHCO3 + CO2)
[8] = Example 30: solution + 0.1% w/w of NaHCO3 and gaseous CO2 to saturation, to load into lyophilizer
[9] = Example 31: solution + 1.0% mol of IRA-67 acetate and 0.8% mol of acetic acid, slurried 2 hr, filtered, loaded into lyophilizer

CC(=O)[C@]1(O)Cc2c(O)c3c(c(O)c2[C@@H](O[C@H]2C[C@@H](N)[C@H](O)C(C)O2)C1)C(=O)c1ccccc1C3=O.Cl (some centres unmarked) [Idarubicin HCl, Idarubicin hydrochloride]
% aglycone (Example 16: lyophilized product obtained, not stabilized): 0.29%
% aglycone [1]: 0.14%
pH of the solution as 1% w/v [1]: 5.36
pH of the solution diluted to 0.5% w/v [1]: 6.32
% aglycone (Example 26: lyophilized product obtained (1.5% mol of both NH4OAc/AcOH)): 0.16%
% aglycone [2]: 0.14%
pH of the solution as 1% w/v [2]: 5.14
pH of the solution diluted to 0.5% w/v [2]: 5.26
% aglycone (Example 27: lyophilized product obtained (charcoal + 1.5% mol of both NH4OAc/AcOH)): 0.04%
% aglycone [3]: 0.03%
pH of the solution as 1% w/v [3]: 5.85
pH of the solution diluted to 0.5% w/v [3]: 6.05
% aglycone (Example 28: lyophilized product obtained (0.65% mol of both NH4OAc/AcOH)): 0.19%
% aglycone [4]: 0.15%
pH of the solution diluted to 0.5% w/v [4]: 5.72
% aglycone [5]: 0.16%
% bis-anhydro [5]: 0.05%
% aglycone [6]: 0.15%
% bis-anhydro [6]: 0.06%
pH of the solution diluted to 0.5% w/v [6]: 5.73
% aglycone [7]: 0.16%
% bis-anhydro [7]: 0.05%
% aglycone [8]: 0.15%
% bis-anhydro [8]: 0.05%
pH of the solution diluted to 0.5% w/v [8]: 6.14
% aglycone (Example 31: lyophilized product obtained (IRA-67 acetate + acetic acid)): 0.18%
% aglycone [9]: 0.15%
pH of the solution after dilution to 0.5% w/v [9]: 5.82
% aglycone (starting solid idarubicin HCl containing a trace amount of HCl): 0.14%
